This passage reports IC50 results from US20200016159A1, “N3-CYCLICALLY SUBSTITUTED THIENOURACILS AND USE THEREOF” (Bayer Aktiengesellschaft, priority 2016, published 2020).

For the assay, the target named is T1, human adenosine A2b receptor (Homo sapiens, UniProt P29275).
T1 sequence (P29275 1-332): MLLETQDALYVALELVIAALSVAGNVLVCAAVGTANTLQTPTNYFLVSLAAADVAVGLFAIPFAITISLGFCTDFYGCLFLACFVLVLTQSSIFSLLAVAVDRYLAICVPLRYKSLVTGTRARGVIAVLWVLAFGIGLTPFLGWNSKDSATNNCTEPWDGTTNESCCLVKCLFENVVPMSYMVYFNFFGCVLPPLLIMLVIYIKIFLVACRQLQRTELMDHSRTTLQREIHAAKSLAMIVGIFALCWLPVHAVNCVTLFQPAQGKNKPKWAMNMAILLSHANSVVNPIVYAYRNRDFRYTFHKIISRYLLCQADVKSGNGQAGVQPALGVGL
Kind of assay: Cellular in vitro reporter gene test for A2b receptor activity (antagonism of NECA). The assay is classed as cell-based. On the set-up: expressed in transfected cells; host or cells: CHO-K1 (Chinese hamster ovary) with CRE-luciferase reporter. The conditions noted are these: recombinant CHO-K1 cells, CRE-luciferase reporter, co-incubation with EC50 concentration of NECA, 3 hours. In a few lines: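 CHO-K1 cells expressing recombinant human A2b receptor plus a CRE-driven firefly luciferase reporter. Compounds co-incubated with NECA at its same-day EC50 concentration; luminescence read 3 hours after NECA addition. IC50 values, sometimes means of several determinations rounded to two significant figures.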
For orientation: Reporter assays use an easily measured gene product as a stand-in for the process of interest.

Broadly, the IC50 is the concentration that inhibits the measured activity by half. Turning to `Cc1c(CN2CCNC2=NC#N)sc2c1c(=O)n(C1CC1)c(=O)n2CCCF` [Example 7, [1-{[3-Cyclopropyl-1-(3-fluoropropyl)-5-methyl-2,4-dioxo-1,2,3,4-tetrahydrothieno[2,3-d]pyrimidin-6-yl]methyl}imidazolidin-2-ylidene]cyanamide], the IC50 came out at 18 nM.

`Cc1c(CN2CCNC(=O)C2=O)sc2c1c(=O)n(C1CC1)c(=O)n2CCCF` [Example 8, 3-Cyclopropyl-6-[(2,3-dioxopiperazin-1-yl)methyl]-1-(3-fluoropropyl)-5-methylthieno[2,3-d]pyrimidine-2,4(1H,3H)-dione]: the IC50 was 44 nM.

As to `Cc1c(CN2CCNC2=O)sc2c1c(=O)n(C1CC1)c(=O)n2CCC(F)(F)F` [Example 9, 3-Cyclopropyl-5-methyl-6-[(2-oxoimidazolidin-1-yl)methyl]-1-(3,3,3-trifluoropropyl)thieno[2,3-d]pyrimidine-2,4(1H,3H)-dione], the IC50 stood at 1.5 nM.

Consider `Cc1c(CN2CCNC2=S)sc2c1c(=O)n(C1CC1)c(=O)n2CCC(F)(F)F` [Example 10, 3-Cyclopropyl-5-methyl-6-[(2-thioxoimidazolidin-1-yl)methyl]-1-(3,3,3-trifluoropropyl)thieno[2,3-d]pyrimidine-2,4(1H,3H)-dione], for which the IC50 is 1.5 nM.

In the case of `Cc1c(CN2CCNC2=NC#N)sc2c1c(=O)n(C1CC1)c(=O)n2CCC(F)(F)F` [Example 11, [1-{[3-Cyclopropyl-5-methyl-2,4-dioxo-1-(3,3,3-trifluoropropyl)-1,2,3,4-tetrahydrothieno[2,3-d]pyrimidin-6-yl]methyl}imidazolidin-2-ylidene]cyanamide], the IC50 was determined as 3.3 nM.

For `COC(=O)N=C1NCCN1Cc1sc2c(c1C)c(=O)n(C1CC1)c(=O)n2CCC(F)(F)F` [Example 12, Methyl [1-{[3-cyclopropyl-5-methyl-2,4-dioxo-1-(3,3,3-trifluoropropyl)-1,2,3,4-tetrahydrothieno[2,3-d]pyrimidin-6-yl]methyl}imidazolidin-2-ylidene]carbamate], the IC50 was found to be 4.2 nM.

For `Cc1c(CN2CCNC(=O)C2=O)sc2c1c(=O)n(C1CC1)c(=O)n2CCC(F)(F)F` [Example 13, 3-Cyclopropyl-6-[(2,3-dioxopiperazin-1-yl)methyl]-5-methyl-1-(3,3,3-trifluoropropyl)thieno[2,3-d]pyrimidine-2,4(1H,3H)-dione], the IC50 amounted to 4 nM.

Take `Cc1c(Cn2cc[nH]c2=O)sc2c1c(=O)n(C1CC1)c(=O)n2CCC(F)(F)F` [Example 14, 3-Cyclopropyl-5-methyl-6-[(2-oxo-2,3-dihydro-1H-imidazol-1-yl)methyl]-1-(3,3,3-trifluoropropyl)thieno[2,3-d]pyrimidine-2,4(1H,3H)-dione]: the IC50 was determined as 3.7 nM.

Take `[2H]C([2H])(c1sc2c(c1C)c(=O)n(C1CC1)c(=O)n2CCC(F)(F)F)N1CCNC1=O` [Example 16, 3-Cyclopropyl-5-methyl-6-[(2-oxoimidazolidin-1-yl)dideuteromethyl]-1-(3,3,3-trifluoropropyl)thieno[2,3-d]pyrimidine-2,4(1H,3H)-dione]: the IC50 was 3 nM.

As to `Cc1c(CN2CCNC2=O)sc2c1c(=O)n(C1CC1)c(=O)n2CC1CCC1` [Example 17, 1-(Cyclobutylmethyl)-3-cyclopropyl-5-methyl-6-[(2-oxoimidazolidin-1-yl)methyl]thieno[2,3-d]pyrimidine-2,4(1H,3H)-dione], the IC50 amounted to 4.1 nM.

For `Cc1c(Cn2nc[nH]c2=O)sc2c1c(=O)n(C1CC1)c(=O)n2CC1CCC1` [Example 18, 1-(Cyclobutylmethyl)-3-cyclopropyl-5-methyl-6-[(5-oxo-4,5-dihydro-1H-1,2,4-triazol-1-yl)methyl]thieno[2,3-d]pyrimidine-2,4(1H,3H)-dione], the IC50 is 25 nM.

On to `Cc1c(Cn2nc[nH]c2=O)sc2c1c(=O)n(C1CC1)c(=O)n2CC#N` [Example 23, {3-Cyclopropyl-5-methyl-2,4-dioxo-6-[(5-oxo-4,5-dihydro-1H-1,2,4-triazol-1-yl)methyl]-3,4-dihydrothieno[2,3-d]pyrimidin-1 (2H)-yl}acetonitrile], for which the IC50 was 130 nM.

`COCCn1c(=O)n(C2CC2)c(=O)c2c(C)c(CN3CCNC3=O)sc21` [Example 24, 3-Cyclopropyl-1-(2-methoxyethyl)-5-methyl-6-[(2-oxoimidazolidin-1-yl)methyl]thieno[2,3-d]pyrimidine-2,4(1H,3H)-dione]: the IC50 was 29 nM.

Turning to `COCCn1c(=O)n(C2CC2)c(=O)c2c(C)c(CN3CCNC3=NC#N)sc21` [Example 25, [1-{[3-Cyclopropyl-1-(2-methoxyethyl)-5-methyl-2,4-dioxo-1,2,3,4-tetrahydrothieno[2,3-d]pyrimidin-6-yl]methyl}imidazolidin-2-ylidene]cyanamide], the IC50 was found to be 12 nM.

With `COCCn1c(=O)n(C2CC2)c(=O)c2c(C)c(CN3CCNC(=O)C3=O)sc21` [Example 27, 3-Cyclopropyl-6-[(2,3-dioxopiperazin-1-yl)methyl]-1-(2-methoxyethyl)-5-methylthieno[2,3-d]pyrimidine-2,4(1H,3H)-dione], the IC50 came to 40 nM.

For the compound `COCCn1c(=O)n(C2CC2)c(=O)c2c(C)c(Cn3cc[nH]c3=O)sc21` [Example 28, 3-Cyclopropyl-1-(2-methoxyethyl)-5-methyl-6-[(2-oxo-2,3-dihydro-1H-imidazol-1-yl)methyl]thieno[2,3-d]pyrimidine-2,4(1H,3H)-dione], the IC50 came to 19 nM.

For `COCCn1c(=O)n(C2CC2)c(=O)c2c(C)c(Cn3nc[nH]c3=O)sc21` [Example 29, 3-Cyclopropyl-1-(2-methoxyethyl)-5-methyl-6-[(5-oxo-4,5-dihydro-1H-1,2,4-triazol-1-yl)methyl]thieno[2,3-d]pyrimidine-2,4(1H,3H)-dione], the IC50 turned out to be 57 nM.

On to `[2H]C([2H])(c1sc2c(c1C)c(=O)n(C1CC1)c(=O)n2CCOC)N1CCNC1=O` [Example 30, 3-Cyclopropyl-1-(2-methoxyethyl)-5-methyl-6-[(2-oxoimidazolidin-1-yl)dideuteromethyl]thieno[2,3-d]pyrimidine-2,4(1H,3H)-dione], for which the IC50 was determined as 9.3 nM.

Consider `CCOCCn1c(=O)n(C2CC2)c(=O)c2c(C)c(CN3CCNC3=O)sc21` [Example 31, 3-Cyclopropyl-1-(2-ethoxyethyl)-5-methyl-6-[(2-oxoimidazolidin-1-yl)methyl]thieno[2,3-d]pyrimidine-2,4(1H,3H)-dione], for which the IC50 was 67 nM.

As to `CCOCCn1c(=O)n(C2CC2)c(=O)c2c(C)c(Cn3nc[nH]c3=O)sc21` [Example 32, 3-Cyclopropyl-1-(2-ethoxyethyl)-5-methyl-6-[(5-oxo-4,5-dihydro-1H-1,2,4-triazol-1-yl)methyl]thieno[2,3-d]pyrimidine-2,4(1H,3H)-dione], the IC50 was 430 nM.

As for `Cc1c(CN2CCNC2=O)sc2c1c(=O)n(C1CC1)c(=O)n2CCOC(C)C` [Example 33, 3-Cyclopropyl-1-(2-isopropoxyethyl)-5-methyl-6-[(2-oxoimidazolidin-1-yl)methyl]thieno[2,3-d]pyrimidine-2,4(1H,3H)-dione], the IC50 came to 100 nM.

In the case of `Cc1c(Cn2nc[nH]c2=O)sc2c1c(=O)n(C1CC1)c(=O)n2CCOC(C)C` [Example 34, 3-Cyclopropyl-1-(2-isopropoxyethyl)-5-methyl-6-[(5-oxo-4,5-dihydro-H-1,2,4-triazol-1-yl)methyl]thieno[2,3-d]pyrimidine-2,4(1H,3H)-dione], the IC50 worked out at 500 nM.

On to `Cc1c(CN2CCNC2=O)sc2c1c(=O)n(C1CC1)c(=O)n2CCOC(F)(F)F` [Example 35, 3-Cyclopropyl-5-methyl-6-[(2-oxoimidazolidin-1-yl)methyl]-1-[2-(trifluoromethoxy)ethyl]thieno[2,3-d]pyrimidine-2,4(1H,3H)-dione], for which the 50% inhibitory concentration (IC50) stood at 1.8 nM.

Turning to `Cc1c(CN2CCNC2=O)sc2c1c(=O)n(C1CC1)c(=O)n2C[C@H]1CCCO1` [Example 38, 3-Cyclopropyl-5-methyl-6-[(2-oxoimidazolidin-1-yl)methyl]-1-[(2R)-tetrahydrofuran-2-ylmethyl]thieno[2,3-d]pyrimidine-2,4(1H,3H)-dione], the IC50 was determined as 33 nM.

In the case of `Cc1c(CN2CCNC2=O)sc2c1c(=O)n(C1CC1)c(=O)n2C[C@@H]1CCCO1` [Example 39, 3-Cyclopropyl-5-methyl-6-[(2-oxoimidazolidin-1-yl)methyl]-1-[(2S)-tetrahydrofuran-2-ylmethyl]thieno[2,3-d]pyrimidine-2,4(1H,3H)-dione], the IC50 was 240 nM.

Regarding `Cc1c(Cn2nc[nH]c2=O)sc2c1c(=O)n(C1CC1)c(=O)n2C[C@H]1CCCO1` [Example 50, 3-Cyclopropyl-5-methyl-6-[(5-oxo-4,5-dihydro-1H-1,2,4-triazol-1-yl)methyl]-1-[(2R)-tetrahydrofuran-2-ylmethyl]thieno[2,3-d]pyrimidine-2,4(1H,3H)-dione], the IC50 was found to be 140 nM.

As to `Cc1c(Cn2nc[nH]c2=O)sc2c1c(=O)n(C1CC1)c(=O)n2C[C@@H]1CCCO1` [Example 51, 3-Cyclopropyl-5-methyl-6-[(5-oxo-4,5-dihydro-1H-1,2,4-triazol-1-yl)methyl]-1-[(2S)-tetrahydrofuran-2-ylmethyl]thieno[2,3-d]pyrimidine-2,4(1H, 3H)-dione], the IC50 turned out to be 320 nM.

Take `Cc1c(CN2CCNC2=O)sc2c1c(=O)n(C1(C)CC1)c(=O)n2C` [Example 52, 1,5-Dimethyl-3-(1-methylcyclopropyl)-6-[(2-oxoimidazolidin-1-yl)methyl]thieno[2,3-d]pyrimidine-2,4(1H,3H)-dione]: the IC50 is 19 nM.
